Measurements reported in patent US20230159510A1, “NOVEL PRMT5 INHIBITORS” (AMGEN INC., priority 2020, published 2023).
Read-outs that look alike come from different tables or passages of the source.

Key:
HCT116 MTAP null cells = experiment: HCT116 proliferation assay, MTAP null cells (CellTiter-Glo, 6 days); format: cell-based; settings: read-out: Protif_ HCT116-MTAP null IC50
In short: (§1)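 Both lines grow in RPMI 1640 containing 10% fetal bovine serum. After an overnight rest, they receive compound at up to 1 or 10 µM in threefold serial dilutions, with vehicle wells holding DMSO only.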

PRMT5/MEP50 [1] = target: T1, PRMT5/MEP50 (Homo sapiens, UniProt O14744); experiment: MTase-Glo methyl transferase assay, Method B (FL-Histone H2A, 1 µM MTA, 1 h pre-incubation); format: biochemical; design: purchased Reaction Biology Corp RD-11-292; settings: read-out: PRMT5 MTase Glo Ki (nM, Meth. B)
Protocol: Method B: The PRMT5 inhibitory activity of test compounds was determined using the MTase-Glo™ assay (Promega), which monitors the product (S-adenosyl homocysteine or SAH) of methyltransferase reactions. The PRMT5 MTase-Glo assay was conducted in a 384-well white ProxiPlate (PerkinElmer) in a total volume of 16 µL. The PRMT5 enzymatic reaction (in 8 µL) contained 4 nM PRMT5/MEP50 (Reaction Biology Corp, catalog no.: RD-11-292), 5 µM S-adenosyl methionine (SAM, Promega), 2.5 µM FL-Histone H2A (BPS Bioscience, catalog no.: 52021), 1 µM 5′-methylthioadenosine (MTA, Sigma) and ½ log serially diluted compounds in a reaction buffer of 50 mM Tris (pH 8.0), 50 mM NaCl, 0.01% Tween 20, 0.01% BSA, and 1 mM TCEP. Test compounds were pre-incubated with PRMT5/MEP50, SAM, and MTA for 1 hour before addition of FL-Histone H2A to initiate the PRMT5 reaction. The reaction was allowed to proceed for 20 hours at room temperature and was then terminated by addition of 1 µL of 9X MTase-Glo™ Reagent (Promega). After a 30-minute incubation at room temperature, 8 µL of MTase-Glo™ Detection Solution (Promega) was added and the plate was incubated at room temperature for an additional 30 minutes. The light signal corresponding to the amount of SAH produced by the PRMT5 reaction was subsequently measured using an Envision multimode reader (PerkinElmer). IC50 and KI values were obtained by analyzing dose-response curves using GraphPad Prism®.
Target sequence in this assay (O14744 2-637 limits assumed): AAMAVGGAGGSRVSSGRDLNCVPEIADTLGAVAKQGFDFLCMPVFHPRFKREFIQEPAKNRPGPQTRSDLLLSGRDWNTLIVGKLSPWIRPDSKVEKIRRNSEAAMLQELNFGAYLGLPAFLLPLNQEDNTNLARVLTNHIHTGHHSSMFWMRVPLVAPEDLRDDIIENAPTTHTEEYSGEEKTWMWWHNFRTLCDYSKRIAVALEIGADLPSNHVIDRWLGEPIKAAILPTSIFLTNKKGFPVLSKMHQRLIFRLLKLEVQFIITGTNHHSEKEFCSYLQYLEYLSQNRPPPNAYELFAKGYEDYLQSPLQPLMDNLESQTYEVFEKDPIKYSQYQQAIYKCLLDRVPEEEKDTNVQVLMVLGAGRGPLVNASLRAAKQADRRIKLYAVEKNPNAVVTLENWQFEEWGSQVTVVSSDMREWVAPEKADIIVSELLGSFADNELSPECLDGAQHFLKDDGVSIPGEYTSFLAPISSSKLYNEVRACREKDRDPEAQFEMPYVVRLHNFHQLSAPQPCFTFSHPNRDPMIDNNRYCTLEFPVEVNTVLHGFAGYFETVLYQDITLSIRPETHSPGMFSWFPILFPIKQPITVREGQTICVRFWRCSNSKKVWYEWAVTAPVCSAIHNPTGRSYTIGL
Target sequence in this assay (Q9BQA1 2-342 partner limits assumed): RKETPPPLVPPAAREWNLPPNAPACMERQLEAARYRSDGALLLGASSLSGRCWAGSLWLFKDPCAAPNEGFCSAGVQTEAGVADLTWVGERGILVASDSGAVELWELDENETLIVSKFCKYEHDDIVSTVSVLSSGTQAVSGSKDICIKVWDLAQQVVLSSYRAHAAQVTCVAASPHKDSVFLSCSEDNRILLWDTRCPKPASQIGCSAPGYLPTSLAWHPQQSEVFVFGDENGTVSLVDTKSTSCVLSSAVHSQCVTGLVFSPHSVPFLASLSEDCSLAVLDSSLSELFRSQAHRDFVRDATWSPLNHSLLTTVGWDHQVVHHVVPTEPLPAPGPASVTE

HCT116 WT cells = experiment: HCT116 proliferation assay, WT cells (CellTiter-Glo, 6 days); format: cell-based; settings: Homo sapiens, HCT-116, 144 h, read-out: Prolif_HCT116-WT IC50
In short: as §1

PRMT5/MEP50 [2] = target: T1, PRMT5/MEP50; experiment: MTase-Glo methyl transferase assay, Method A (Histone H4 peptide, 1 µM MTA, 24 h pre-incubation); format: biochemical; design: made in house; settings: read-out: PRMT5 MTase Glo Ki (nM, Meth. A)
In short: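 PRMT5/MEP50 (10 nM) pre-incubated 24 h with compound, 5 µM SAM and 1 µM MTA, then reaction started with 1 µM Histone H4 (1-21) peptide and run 2 h at room temperature in Tris pH 8.0 buffer. SAH formed detected by MTase-Glo luminescence; IC50 and KI from dose-response curves.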
Target sequence in this assay (O14744 whole entry): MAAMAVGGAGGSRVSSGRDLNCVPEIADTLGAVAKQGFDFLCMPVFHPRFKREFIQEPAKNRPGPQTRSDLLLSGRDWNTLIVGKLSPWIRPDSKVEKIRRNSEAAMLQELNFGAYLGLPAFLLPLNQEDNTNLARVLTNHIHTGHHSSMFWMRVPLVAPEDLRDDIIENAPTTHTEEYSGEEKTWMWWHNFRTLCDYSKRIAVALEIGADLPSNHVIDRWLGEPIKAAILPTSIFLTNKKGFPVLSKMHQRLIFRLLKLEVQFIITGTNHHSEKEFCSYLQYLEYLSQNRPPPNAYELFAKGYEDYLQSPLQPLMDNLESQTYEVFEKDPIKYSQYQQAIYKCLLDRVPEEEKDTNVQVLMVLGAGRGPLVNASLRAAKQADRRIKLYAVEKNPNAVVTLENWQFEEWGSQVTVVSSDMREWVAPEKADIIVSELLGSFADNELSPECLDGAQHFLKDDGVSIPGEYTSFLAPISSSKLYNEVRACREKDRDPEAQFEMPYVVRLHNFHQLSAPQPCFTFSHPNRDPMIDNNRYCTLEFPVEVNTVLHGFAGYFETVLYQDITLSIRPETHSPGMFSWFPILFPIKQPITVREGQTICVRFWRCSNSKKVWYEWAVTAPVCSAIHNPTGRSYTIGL
Target sequence in this assay (Q9BQA1 whole entry partner): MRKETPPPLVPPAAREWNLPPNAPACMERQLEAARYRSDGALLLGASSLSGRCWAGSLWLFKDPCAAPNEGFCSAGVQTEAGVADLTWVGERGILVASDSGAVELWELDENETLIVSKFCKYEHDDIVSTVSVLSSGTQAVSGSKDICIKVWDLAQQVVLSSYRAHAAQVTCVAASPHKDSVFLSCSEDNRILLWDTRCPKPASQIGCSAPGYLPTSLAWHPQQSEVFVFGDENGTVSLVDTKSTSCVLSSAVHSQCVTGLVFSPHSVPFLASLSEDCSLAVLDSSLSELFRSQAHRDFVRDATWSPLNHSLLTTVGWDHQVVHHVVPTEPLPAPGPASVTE

| Compound | IC50 (HCT116 MTAP null cells; HCT116-MTAP null, 144 h) [nM] | Ki (PRMT5/MEP50 [1]) [nM] | IC50 (HCT116 WT cells) [nM] | Ki (PRMT5/MEP50 [2]) [nM] | IC50 (HCT116 MTAP null cells) [nM] |
| --- | --- | --- | --- | --- | --- |
| Cc1cc2cc(C(=O)N(Cc3ccc(C(F)(F)F)cn3)C(CC(N)=O)C3CCOCC3)ccc2nc1N (stereo not shown) [Example 682, 2-amino-N-(3-amino-3-oxo-1-tetrahydropyran-4-yl-propyl)-3-methyl-N-[[5-(trifluoromethyl)-2-pyridyl]methyl] quinoline-6-carboxamide] |  | 23 |  |  |  |
| Cc1cc2cc(C(=O)N(Cc3ccc(C(F)(F)F)cn3)C3CCCC3C#N)ncc2nc1N (stereo not shown) [Example 701, 2-amino-N-(2-cyanocyclopentyl)-3-methyl-N-[[5-(trifluoromethyl)-2-pyridyl]methyl]-1,7-naphthyridine-6-carboxamide] |  | 37.2 |  |  |  |
| Cc1cc2cc(C(=O)N(Cc3ccc(C(F)(F)F)cn3)C3CCCC3C#N)cnc2nc1N (stereo not shown) [Example 700, 7-amino-N-(2-cyanocyclopentyl)-6-methyl-N-[[5-(trifluoromethyl)-2-pyridyl]methyl]-1,8-naphthyridine-3-carboxamide] |  | 38.1 |  |  |  |
| Cc1cc2cc(C(=O)N(Cc3ccc(C(F)(F)F)cn3)C3CC4(C3)CC(F)(F)C4)ccc2nc1N [Example 698, 2-amino-N-(2,2-difluorospiro [3.3]heptan-6-yl)-3-methyl-N-[[5-(trifluoromethyl)-2-pyridyl]methyl] quinoline-6-carboxamide] |  | 36.4 |  |  |  |
| Cc1cc2cc(C(=O)N(Cc3ccc(C(F)(F)F)cn3)C3CC(C#N)C3)ccc2nc1N (stereo not shown) [Example 697, 2-amino-N-(3-cyanocyclobutyl)-3-methyl-N-[[5-(trifluoromethyl)-2-pyridyl]methyl] quinoline-6-carboxamide] |  | 36.5 |  |  |  |
| C[C@H](c1ncccc1F)N(Cc1ccc(C(F)(F)F)nn1)C(=O)c1cnc2nc(N)c(Br)cc2c1 [Example 397, 7-amino-6-bromo-N-((1R)-1-(3-fluoro-2-pyridinyl)ethyl)-N-((6-(trifluoromethyl)-3-pyridazinyl)methyl)-1,8-naphthyridine-3-carboxamide] | 286 |  | 7960 | 0.23 |  |
| Cc1cc2cc(C(=O)N(Cc3ccc(C(N)=O)cc3)Cc3ccc(C(F)(F)F)cn3)ccc2nc1N [Example 355, 2-amino-N-(4-carbamoylbenzyl)-3-methyl-N-((5-(trifluoromethyl)-2-pyridinyl)methyl)-6-quinolinecarboxamide] | 159 |  | 3350 | 0.2 |  |
| Cc1cc2cc(C(=O)N(Cc3ccc(C(F)(F)F)nn3)[C@@H]3CCOc4cccnc43)ccc2nc1N (single isomer, unassigned) [Example 520] | 24 |  | 737 | 0.04 |  |
| Cc1cc2cc(C(=O)N(Cc3ccc(N4CCCC4)cc3)CC(C)C)ccc2nc1N [Example 643, 2-amino-N-isobutyl-3-methyl-N-[(4-pyrrolidin-1-ylphenyl)methyl]quinoline-6-carboxamide] |  | 39.6 |  |  |  |
| Cc1cc2cc(C(=O)N(Cc3cccc(C(F)(F)F)n3)[C@H](C)c3ncccn3)ccc2nc1N (single isomer, unassigned) [Example 526] | 323 |  | > 10000 | 0.33 |  |
| Cc1cc2cc(C(=O)N(Cc3ccc(N4CC(F)(F)C4)cn3)[C@H](C)c3ncccn3)ccc2nc1N [Example 359, 2-amino-N-((5-(3,3-difluoro-1-azetidinyl)-2-pyridinyl)methyl)-3-methyl-N-((1R)-1-(2-pyrimidinyl)ethyl)-6-quinolinecarboxamide] | 208 |  | 4740 | < 0.1 |  |
| Cc1cc2cc(C(=O)N(Cc3ccc(C(F)(F)F)nc3)[C@H](C)c3ncccn3)ccc2nc1N (single isomer, unassigned) [Example 477] | 195 |  | 5640 | 0.11 |  |
| Cc1cc2c(CN(Cc3ccc(C(F)(F)F)cn3)C(=O)c3ccc4nc(N)c(C)cc4c3)ccnc2[nH]1 [Example 506, 2-amino-3-methyl-N-((2-methyl-1H-pyrrolo[2,3-b]pyridin-4-yl)methyl)-N-((5-(trifluoromethyl)-2-pyridinyl)methyl)-6-quinolinecarboxamide] | 107 |  | 1160 | 0.01 |  |
| Cc1cc2cc(C(=O)N(Cc3ccc(C(F)(F)F)nn3)[C@H](C)c3ncccc3F)ccc2nc1N [Example 510, 2-amino-N-((1R)-1-(3-fluoro-2-pyridinyl)ethyl)-3-methyl-N-((6-(trifluoromethyl)-3-pyridazinyl)methyl)-6-quinolinecarboxamide] | 70 |  | 1910 | 0.32 |  |
| Cc1cc2cc(C(=O)N(Cc3ccc(C(F)(F)F)nn3)[C@@H]3CCOc4ccc(F)nc43)ccc2nc1N [Example 515, (R)-2-amino-N-(6-fluoro-3,4-dihydro-2H-pyrano[3,2-b]pyridin-4-yl)-3-methyl-N-((6-(trifluoromethyl)pyridazin-3-yl)methyl)quinoline-6-carboxamide] | 23 |  | 480 | 0.02 |  |
| Cc1cc2cc(C(=O)N(Cc3ccc(C(F)F)cn3)[C@H](C)c3cnn(C)n3)ccc2nc1N (single isomer, unassigned) [Example 532] | 45 |  | 894 | 0.02 |  |
| Cc1cc2cc(C(=O)N(Cc3ccc(C(F)(F)F)cn3)Cc3ccnc4[nH]ccc34)cnc2nc1N [Example 368, N-((1H-pyrrolo[2,3-b]pyridin-4-yl)methyl)-7-amino-6-methyl-N-((5-(trifluoromethyl)pyridin-2-yl)methyl)-1,8-naphthyridine-3-carboxamide] |  |  | 7660 | 0.14 | 411 |
| Cc1cc2cc(C(=O)N(Cc3ccc(C(F)(F)F)cn3)Cc3cnccn3)c(F)cc2nc1N [Example 315, 2-amino-7-fluoro-3-methyl-N-(2-pyrazinylmethyl)-N-((5-(trifluoromethyl)-2-pyridinyl)methyl)-6-quinolinecarboxamide] | 181 |  | 4340 | 0.25 |  |

Now from value to molecule:

| IC50 (HCT116 MTAP null cells; HCT116-MTAP null, 144 h) [nM] | Ki (PRMT5/MEP50 [1]) [nM] | IC50 (HCT116 WT cells) [nM] | Ki (PRMT5/MEP50 [2]) [nM] | IC50 (HCT116 MTAP null cells) [nM] | Compound |
| --- | --- | --- | --- | --- | --- |
| 950 | 9.37 |  |  |  | Cc1cc2cc(C(=O)N(Cc3ccc(C(F)(F)F)cn3)CC3CCC(O)C3)ccc2nc1N (stereo not shown) [Example 677, 2-amino-N-[(3-hydroxycyclopentyl)methyl]-3-methyl-N-[[5-(trifluoromethyl)-2-pyridyl]methyl] quinoline-6-carboxamide] |
|  | 12.6 |  |  |  | Cc1cc2cc(C(=O)N(CC#CCO)Cc3ccc(C(F)(F)F)cn3)ccc2nc1N [Example 658, 2-amino-N-(4-hydroxybut-2-ynyl)-3-methyl-N-[[5-(trifluoromethyl)-2-pyridyl]methyl] quinoline-6-carboxamide] |
|  | 36.8 |  |  |  | Cc1cc2cc(C(=O)N(Cc3ccc(C(F)(F)F)cn3)C(C)C(C)n3cccn3)ccc2nc1N (stereo not shown) [Example 679, 2-amino-3-methyl-N-(1-methyl-2-pyrazol-1-yl-propyl)-N-[[5-(trifluoromethyl)-2-pyridyl]methyl] quinoline-6-carboxamide] |
|  | 31 |  |  |  | Cc1cc2cc(C(=O)N(Cc3ccc(C(F)(F)F)cn3)C3CC3(C)C)ccc2nc1N (stereo not shown) [Example 706, 2-amino-N-(2,2-dimethylcyclopropyl)-3-methyl-N-[[5-(trifluoromethyl)-2-pyridyl]methyl] quinoline-6-carboxamide] |
|  | 29.3 |  |  |  | Cc1cc2cc(C(=O)N(Cc3cccc(-n4cncn4)c3)CC(C)C)ccc2nc1N [Example 644, 2-amino-N-isobutyl-3-methyl-N-[[3-(1,2,4-triazol-1-yl)phenyl]methyl] quinoline-6-carboxamide] |
|  | 42.7 |  |  |  | Cc1cc2cc(C(=O)N(Cc3cncnc3)Cc3ccc(C(F)(F)F)cn3)ccc2nc1N [Example 626, 2-amino-3-methyl-N-(pyrimidin-5-ylmethyl)-N-((5-(trifluoromethyl)pyridin-2-yl)methyl)quinoline-6-carboxamide] |
| 400 |  | > 10000 | 0.47 |  | Cc1cc2cc(C(=O)N(Cc3ccc(C(F)(F)F)cn3)Cc3cnccn3)ccc2nc1N [Example 336, 2-amino-3-methyl-N-(2-pyrazinylmethyl)-N-((5-(trifluoromethyl)-2-pyridinyl)methyl)-6-quinolinecarboxamide] |
| 620 |  | > 10000 | 2.34 |  | Cc1cc2cc(C(=O)N(Cc3ncc(C(F)(F)F)cc3F)CC(C)C)ccc2nc1N [Example 308, 2-amino-N-((3-fluoro-5-(trifluoromethyl)-2-pyridinyl)methyl)-3-methyl-N-(2-methylpropyl)-6-quinolinecarboxamide] |
